According to ChEMBL document CHEMBL3301361, “Experimental in vitro DMPK and physicochemical data on a set of publicly disclosed compounds”:
≈ marks a conversion by molar mass, not a printed value. Residues, ends and D or L forms follow the SMILES beside them.

Legend:
in vitro [1] = details: human
in vitro [2] = details: hepatocytes
in vitro [3] = details: human, plasma
physchem [4] = details: octan-1-ol/water
physchem [5] = details: pH 7.4 buffer

Row | SMILES | hepatocyte CLint (in vitro [2]) [µL/min/1e6 cells] | fraction unbound at 5 h (in vitro [3]; PPB) | logD (physchem [4]; pH 7.4, LogD7.4) | other results
1 | Nc1ccc(-c2ccccc2Cl)cc1 | 123 |  |  | microsomal CLint (in vitro [1]; microsomes): 39.8 µL/min/mg
2 | Cc1cn([C@H]2CCCN(S(=O)(=O)c3ccc(O)c(Oc4ccc(Cl)cc4)c3)C2)c(=O)[nH]c1=O | 89.1 | 0.0139 | 2.12 | 
3 | O=c1[nH]c2c(O)ccc([C@@H](O)CNCCCSCCNCCc3ccccc3Cl)c2s1 | 12 |  |  | microsomal CLint (in vitro [1]; liver microsomes): 11 µL/min/mg
4 | CC(=O)N[C@@H](CCN)C(=O)N[C@H](C(=O)N[C@@H](CCN)C(=O)N[C@H]1CCNC(=O)[C@H]([C@@H](C)O)NC(=O)[C@H](CCN)NC(=O)[C@H](CCN)NC(=O)[C@H](CC(C)C)NC(=O)[C@@H](Cc2ccccc2)NC(=O)[C@H](CCN)NC1=O)[C@@H](C)O [DEACYL POLYMYXIN B] (HELM PEPTIDE1{[ac].[Dab].T.[Dab].[Dab].[Dab].[dF].L.[Dab].[Dab].T}$PEPTIDE1,PEPTIDE1,5:R3-11:R2$$$V2.0) | < 3 | 0.355 |  | 
5 | COc1cc2c(ccc(=O)n2CCN2CCC(NCc3cc4c(cn3)OCCO4)CC2)cn1 | 35.5 | 0.166 | 0.68 | 
6 | Cc1cccc(C[C@@H](C(=O)O)N2CCC(CN3CCC(Oc4ccc(Cl)c(Cl)c4)CC3)CC2)c1 | < 3 |  |  | microsomal CLint (in vitro [1]; liver microsomes): < 3 µL/min/mg
7 | O=c1cc(-c2cccnc2)[nH]c2cc(C(O)c3ccccc3)ccc12 (stereo not given) | 46 | 0.0268 |  | solubility thermodynamic (physchem [5]): 288 µM (≈ 94.7 µg/mL)
8 | CC(C)S(=O)(=O)c1ccc(-c2cnc(N)c(C(=O)Nc3ccccc3)n2)cc1 | 20.9 |  |  | microsomal CLint (in vitro [1]; liver microsomes): 10 µL/min/mg
9 | CC(=O)Nc1ccc2ccn(-c3cc(NC4COC4)n4ncc(C#N)c4n3)c2c1 | 21.9 | 0.124 | 2.24 | 
10 | Cc1cccc(NC(=O)Nc2cccc3ccccc23)c1 | 91.2 |  |  | microsomal CLint (in vitro [1]; liver microsomes): 70.8 µL/min/mg
11 | CC(=O)[C@@]1(O)CC[C@H]2[C@@H]3CCC4=CC(=O)CCC4=C3[C@@H](c3ccc(N(C)C)cc3)C[C@@]21C [ULIPRISTAL] | > 150 |  |  | fraction unbound at 5 h (in vitro [3]): 0.0049
12 | O=C(NCCCCCCNCCc1ccc(O)c2nc(O)sc12)Nc1ccccc1 | 98 |  |  | microsomal CLint (in vitro [1]; liver microsomes): 11 µL/min/mg
13 | COC(=O)C1=C(C)NC2=C(C(=O)CC(C)(C)C2)C1c1ccc(-c2ccc(C(F)(F)F)cc2)cc1 (stereo not given) | 12.3 |  |  | microsomal CLint (in vitro [1]; liver microsomes): 9.12 µL/min/mg
14 | Cc1cc(OCC(=O)Nc2ccccc2)c2cc(Br)ccc2n1 | > 150 |  |  | microsomal CLint (in vitro [1]; microsomes): 123 µL/min/mg
15 | Nc1nnc(CCSCCc2nnc(NC(=O)Cc3ccccc3)s2)s1 | 72.4 |  |  | microsomal CLint (in vitro [1]; liver microsomes): 55 µL/min/mg
16 | COc1ccc(N(C(=O)c2ccco2)C(C(=O)NC2CCCC2)c2ccccc2F)c(OC)c1 (stereo not given) | > 150 |  |  | microsomal CLint (in vitro [1]; liver microsomes): > 150 µL/min/mg
17 | CN(CCc1ccc(O)c2[nH]c(=O)sc12)CCN(C)C(=O)CCOCCc1ccccc1 | > 150 |  |  | microsomal CLint (in vitro [1]; liver microsomes): > 150 µL/min/mg
18 | CCn1c(SCC(=O)Nc2cc(C)on2)nnc1-c1ccccc1 | > 150 |  |  | microsomal CLint (in vitro [1]; liver microsomes): 32.4 µL/min/mg
19 | CCCCCCCC(=O)N[C@@H](C)C(=O)N[C@H](C(=O)N[C@@H](CCN)C(=O)N[C@H]1CCNC(=O)[C@H]([C@@H](C)O)NC(=O)[C@H](CCN)NC(=O)[C@H](CCN)NC(=O)[C@H](CC(C)C)NC(=O)[C@@H](Cc2ccccc2)NC(=O)[C@H](CCN)NC1=O)[C@@H](C)O (HELM PEPTIDE1{[CCCCCCCC(=O)[*:2]].A.T.[Dab].[Dab].[Dab].[dF].L.[Dab].[Dab].T}$PEPTIDE1,PEPTIDE1,5:R3-11:R2$$$V2.0) | < 3 | 0.107 |  | 
20 | CC(=O)N1N=C(c2ccc(Br)cc2)CC1c1ccc(C)cc1 (stereo not given) | 30.9 |  |  | microsomal CLint (in vitro [1]; liver microsomes): 41.7 µL/min/mg
21 | N#CCNC(=O)c1ccc(-c2ccnc(Nc3ccc(N4CCOCC4)cc3)n2)cc1 [MOMELOTINIB] | 5.13 | 0.103 | 2.37 | 
22 | Cc1ccc(CO)cc1N(C)c1ccnc(Nc2cc(N3CCOCC3)cc(N3CCOCC3)c2)n1 | 31.6 | 0.0818 | 2.94 | solubility thermodynamic (physchem [5]): 195 µM (≈ 95.7 µg/mL)
23 | CCC(CC)C[C@H](c1ccc(C(=O)O)c(Oc2cccc(Cl)c2)c1)N1CCC[C@H](n2cc(C)c(=O)[nH]c2=O)C1 | 36.3 | 0.0119 | 1.68 | 
24 | C[C@@](C(=O)O[C@H]1C[N+]2(CCCc3ccncc3)CCC1CC2)(c1ccccc1)N1CCCCC1 | 82 |  |  | fraction unbound at 5 h (in vitro [3]): 0.483

Row | SMILES | hepatocyte CLint (in vitro [2]) [µL/min/1e6 cells] | fraction unbound at 5 h (in vitro [3]; PPB) | logD (physchem [4]; pH 7.4, LogD7.4) | other results
25 | CCn1c(SCC(=O)Nc2cc(C)on2)nnc1-c1cccnc1 | 75.9 |  |  | microsomal CLint (in vitro [1]; microsomes): 7.76 µL/min/mg
26 | C[C@H]1CN(Cc2cc(Cl)ccc2CCC(=O)O)CCN1C(=O)Cc1ccccc1 | < 3 |  |  | microsomal CLint (in vitro [1]; liver microsomes): < 3 µL/min/mg
27 | O=c1c2c3n(c(=O)cc2[nH]n1-c1ccccc1Cl)CCCN(Cc1ccccc1)C3 | < 3 |  |  | microsomal CLint (in vitro [1]; microsomes): 32.4 µL/min/mg
28 | O=C(NCc1ccccc1)c1ccc2cccnc2c1O | 22.8 |  |  | microsomal CLint (in vitro [1]; liver microsomes): 49 µL/min/mg
29 | N#Cc1cnc(N2CCN(C(=O)[C@@H]3CCCC[C@H]3C(=O)NC3(C#N)CC3)CC2)s1 | 5.25 |  |  | microsomal CLint (in vitro [1]; microsomes): 6.76 µL/min/mg
30 | Cc1cc(Nc2nc(N[C@@H](C)c3ccc(F)cn3)c(C#N)cc2Cl)n[nH]1 | 6.17 | 0.0358 |  | 
31 | CCOC(=O)c1c(-c2ccccc2)nc2ccc(C)cn12 | 126 |  |  | microsomal CLint (in vitro [1]; microsomes): > 150 µL/min/mg
32 | COc1ccc2ncc(C#N)c(CCN3CCC(NCc4cc5c(cn4)OCS5)CC3)c2c1 | 72.4 | 0.089 | 2.55 | 
33 | Cc1cn([C@H]2CCCN([C@@H](CC(C)(C)C)c3ccc(C(=O)O)c(Oc4cccc(Br)c4)c3)C2)c(=O)[nH]c1=O | < 3 | 0.0099 | 1.12 | 
34 | CCCCCCCC(=O)N[C@@H](CCN)C(=O)N[C@@H](C)C(=O)N[C@@H](CCN)C(=O)N[C@H]1CCNC(=O)[C@H]([C@@H](C)O)NC(=O)[C@H](CCN)NC(=O)[C@H](CCN)NC(=O)[C@H](CC(C)C)NC(=O)[C@@H](Cc2ccccc2)NC(=O)[C@H](CCN)NC1=O (HELM PEPTIDE1{[CCCCCCCC(=O)[*:2]].[Dab].A.[Dab].[Dab].[Dab].[dF].L.[Dab].[Dab].T}$PEPTIDE1,PEPTIDE1,5:R3-11:R2$$$V2.0) | < 3 | 0.0768 |  | 
35 | C[C@@]1(C(=O)Nc2ccc(F)nc2)CCCN1c1nc(Nc2cc(C3CC3)n[nH]2)c2cccn2n1 [BMS-754807] | 70.8 | 0.0209 | 3.16 | 
36 | CC(NC(=O)c1cc(O)nc2ccccc12)c1ccccc1 (stereo not given) | 5.25 |  |  | fraction unbound at 5 h (in vitro [3]): 0.36; logD (physchem [4]; pH 7.4): 2.2
37 | CO[C@H]1CC[C@]2(CC1)Cc1ccc(-c3cc(Cl)cc(C#N)c3)cc1C21N=C(C)C(N)=N1 (stereo not given in full) | 12.6 | 0.0209 | 3.8 | 
38 | CCCC(C)(C)C[C@H](c1ccc(C(=O)O)c(Oc2cccc(Cl)c2)c1)N1CCC[C@H](n2cc(C)c(=O)[nH]c2=O)C1 | 52.5 | 0.0099 | 1.99 | 
39 | CC(=O)Nc1ccc2c(c1)c(-c1cc(NC3CC3)n3ncc(C#N)c3n1)cn2CCCO | 12.3 | 0.0119 | 2.48 | 
40 | COc1cccc(CNc2nc(NC(C)C)nc3ccsc23)c1OC | > 150 |  |  | fraction unbound at 5 h (in vitro [3]): 0.0027
41 | O=c1cc(-c2cccnc2)[nH]c2cc(Cc3ccccc3)ccc12 | 50 | 0.0051 | 3.46 | solubility thermodynamic (physchem [5]): 1.7 µM (≈ 0.531 µg/mL)
42 | C[C@@H]1CN(Cc2cc(Cl)ccc2OCC(=O)O)CCN1S(=O)(=O)c1ccccc1 | 7.48 | 0.0051 |  | 
43 | CN[C@@H](C)C(=O)N[C@H]1CN(C(=O)CC(C)C)CC[C@H]2CC[C@@H](C(=O)NC(c3ccccc3)c3ccccc3)N2C1=O [XEVINAPANT] | 17 | 0.253 | 1.82 | 
44 | Cc1cn([C@H]2CCCN([C@H](CC3CCOCC3)c3ccc(C(=O)O)c(Oc4cccc(Cl)c4)c3)C2)c(=O)[nH]c1=O | 19.1 | 0.107 | -0.25 | 
45 | Cc1cn([C@H]2CCCN(S(=O)(=O)c3ccc(O)c(Oc4cc(F)cc(Cl)c4)c3)C2)c(=O)[nH]c1=O | 74.1 | 0.0119 |  | 
46 | Cc1cn([C@H]2CCCN(S(=O)(=O)c3ccc(O)c(Oc4cccc(Br)c4)c3)C2)c(=O)[nH]c1=O | 38 | 0.0139 | 2.3 | 
47 | Cc1ccc(S(=O)(=O)Nc2c(C(=O)N[C@@H](C)C(C)(C)C)c(C)nn2C2CCOC2)cc1 (stereo not given in full) | < 3 | 0.0736 | 0.78 | 
